Assay [1] deals with TGF-beta receptor type-1 (Homo sapiens) (UniProt P36897). The conditions noted are these: Compound concentration 1000.0 nM.
Assay [2] has as its target Alpha-2C adrenergic receptor (Homo sapiens) (UniProt P18825). The conditions noted are these: Compound concentration 10.0 uM.
For assay [3], the target named is Endothelin receptor type B (Homo sapiens) (UniProt P24530). The conditions noted are these: Compound concentration 10.0 uM.
In assay [4] the target is Histamine H2 receptor (Homo sapiens) (UniProt P25021). The conditions noted are these: Compound concentration 10.0 uM.
Histamine H2 receptor (Homo sapiens), sequence (P25021 whole entry): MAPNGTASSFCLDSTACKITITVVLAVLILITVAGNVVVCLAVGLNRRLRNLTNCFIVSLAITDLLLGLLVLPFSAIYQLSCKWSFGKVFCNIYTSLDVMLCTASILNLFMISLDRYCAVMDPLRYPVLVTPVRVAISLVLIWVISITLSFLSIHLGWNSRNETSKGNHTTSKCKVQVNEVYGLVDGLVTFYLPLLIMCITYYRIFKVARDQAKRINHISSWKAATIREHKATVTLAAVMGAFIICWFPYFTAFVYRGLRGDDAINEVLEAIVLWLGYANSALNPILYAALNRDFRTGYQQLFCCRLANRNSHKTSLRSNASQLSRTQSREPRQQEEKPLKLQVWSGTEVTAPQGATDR
Assay [5] has as its target Platelet-activating factor receptor (Homo sapiens) (UniProt P25105). The experiment in a line: Inhibition of Platelet Activating Factor (PAF) at 10 µM in the Eurofins-Panlabs radioligand binding assay (Eurofins_assay_265010). The conditions noted are these: Compound concentration 10.0 uM.
Assay [6] addresses Insulin receptor (Homo sapiens) (UniProt P06213). Kind of assay: Protein Tyrosine Kinase, Insulin Receptor Eurofins-Panlabs enzyme assay. Also on record: substrate with concentration 10 µg/mL […], incubation time 60 min, incubation temperature 25 °C. The following applies: Compound concentration 10.0 uM.
Assay [7] concerns the target Type-1 angiotensin II receptor (Homo sapiens) (UniProt P30556). Kind of assay: Angiotensin AT1 Eurofins-Panlabs radioligand binding assay. The conditions noted are these: Compound concentration 10.0 uM.
Assay [8] deals with D(1B) dopamine receptor (Homo sapiens) (UniProt P21918). The following applies: Compound concentration 10.0 uM.
Assay [9] has as its target Tyrosine-protein phosphatase non-receptor type 1 (Homo sapiens) (UniProt P18031). Kind of assay: Protein Tyrosine Phosphatase, PTPN1 (PTP1B) Eurofins-Panlabs enzyme assay. Also on record: substrate with concentration. The following applies: Compound concentration 10.0 uM.
Assay [10] addresses Sodium-dependent serotonin transporter (Homo sapiens) (UniProt P31645). The experiment in a line: Transporter, Serotonin (5- Hydroxytryptamine) (SERT) Eurofins-Panlabs radioligand binding assay. The conditions noted are these: Compound concentration 10.0 uM. On the set-up: ligand concentration 0.15 nM, non-specific ligand with concentration 10 µM Imipramine, incubation time 3 h, incubation temperature 4 °C.

The species named for assay [11] is Bos taurus. Kind of assay: Protein Serine/Threonine Kinase, PKA, Non-Selective Eurofins-Panlabs enzyme assay. Type of assay: protein-complex assay. On the set-up: substrate with concentration 370 µg/mL Histone Type III-S, incubation time 15 min, incubation temperature 25 °C. The conditions noted are these: Compound concentration 100.0 uM.
In assay [12] the target is 5-hydroxytryptamine receptor 1B (Homo sapiens) (UniProt P28222). Kind of assay: Inhibition of Serotonin (5-Hydroxytryptamine) 5-HT1B at 10 µM in the Eurofins-Panlabs radioligand binding assay (Eurofins_assay_271200). The conditions noted are these: Compound concentration 10.0 uM.
5-hydroxytryptamine receptor 1B (Homo sapiens), sequence (P28222 whole entry): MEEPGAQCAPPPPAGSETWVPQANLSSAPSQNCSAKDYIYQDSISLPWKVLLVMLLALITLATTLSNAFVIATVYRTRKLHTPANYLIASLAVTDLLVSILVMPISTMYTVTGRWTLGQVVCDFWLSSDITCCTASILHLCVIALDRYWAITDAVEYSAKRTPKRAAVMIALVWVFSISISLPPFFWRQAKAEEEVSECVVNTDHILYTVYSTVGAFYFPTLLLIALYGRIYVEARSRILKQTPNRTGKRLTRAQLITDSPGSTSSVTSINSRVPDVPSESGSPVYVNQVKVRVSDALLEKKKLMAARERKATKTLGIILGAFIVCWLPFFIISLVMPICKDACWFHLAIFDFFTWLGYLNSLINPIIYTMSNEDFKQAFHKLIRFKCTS
For assay [13], the target named is Vasopressin V2 receptor (Homo sapiens) (UniProt P30518). Kind of assay: Vasopressin V2 Eurofins-Panlabs radioligand binding assay. On the set-up: ligand concentration 0.5 nM. The conditions noted are these: Compound concentration 10.0 uM.
Assay [14] addresses Tyrosine-protein phosphatase non-receptor type 2 (Homo sapiens, UniProt P17706). Kind of assay: Protein Tyrosine Phosphatase, PTPN2 (TCPTP) Eurofins-Panlabs enzyme assay. Also on record: substrate with concentration DiFMUP, incubation time 60 min, incubation temperature 37 °C.
Assay [15] concerns the target 5-hydroxytryptamine receptor 6 (Homo sapiens) (UniProt P50406). Kind of assay: Inhibition of Serotonin (5-Hydroxytryptamine) 5-HT6 at 10 µM in the Eurofins-Panlabs radioligand binding assay (Eurofins_assay_272200). The conditions noted are these: Compound concentration 10.0 uM.
Assay [16] deals with Prostaglandin E2 receptor EP1 subtype (Homo sapiens) (UniProt P34995). The experiment in a line: Prostanoid EP1 Eurofins-Panlabs radioligand binding assay. The following applies: Compound concentration 10.0 uM.
The target in assay [17] is Interstitial collagenase (Homo sapiens) (UniProt P03956). Kind of assay: Inhibition of Peptidase, Matrix Metalloproteinase-1 (MMP-1) at 10 µM in the Eurofins-Panlabs enzyme assay (Eurofins_assay_114110). The conditions noted are these: Compound concentration 10.0 uM.
Interstitial collagenase (Homo sapiens), sequence (P03956 whole entry): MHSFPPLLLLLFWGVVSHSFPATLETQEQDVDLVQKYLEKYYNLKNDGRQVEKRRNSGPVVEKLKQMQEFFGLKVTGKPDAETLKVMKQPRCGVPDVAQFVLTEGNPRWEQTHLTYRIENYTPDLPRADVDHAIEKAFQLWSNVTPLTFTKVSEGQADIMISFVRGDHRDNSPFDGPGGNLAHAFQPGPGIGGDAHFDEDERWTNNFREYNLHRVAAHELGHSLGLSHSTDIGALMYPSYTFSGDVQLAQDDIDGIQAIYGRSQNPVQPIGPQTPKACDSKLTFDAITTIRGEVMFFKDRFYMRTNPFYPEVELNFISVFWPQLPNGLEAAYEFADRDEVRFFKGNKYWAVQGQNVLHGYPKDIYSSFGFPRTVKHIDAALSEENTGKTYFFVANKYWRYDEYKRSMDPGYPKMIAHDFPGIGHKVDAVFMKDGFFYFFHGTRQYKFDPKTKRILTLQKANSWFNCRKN
The target in assay [18] is 5-hydroxytryptamine receptor 2B (Homo sapiens) (UniProt P41595). The following applies: Compound concentration 10.0 uM.
5-hydroxytryptamine receptor 2B (Homo sapiens), sequence (P41595 whole entry): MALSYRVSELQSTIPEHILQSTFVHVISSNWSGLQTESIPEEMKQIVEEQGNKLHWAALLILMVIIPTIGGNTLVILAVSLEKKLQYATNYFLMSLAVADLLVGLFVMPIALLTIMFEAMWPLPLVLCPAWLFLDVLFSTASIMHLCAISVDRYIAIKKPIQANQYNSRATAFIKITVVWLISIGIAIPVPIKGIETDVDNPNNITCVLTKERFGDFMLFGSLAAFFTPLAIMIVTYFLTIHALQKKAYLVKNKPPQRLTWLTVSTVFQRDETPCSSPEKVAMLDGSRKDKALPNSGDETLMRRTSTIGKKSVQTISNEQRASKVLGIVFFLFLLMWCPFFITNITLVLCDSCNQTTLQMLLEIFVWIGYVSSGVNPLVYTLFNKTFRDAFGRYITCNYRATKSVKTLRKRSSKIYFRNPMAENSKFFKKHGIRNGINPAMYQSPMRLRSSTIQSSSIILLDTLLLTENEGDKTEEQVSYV
Assay [19] concerns the target Caspase-8 (Homo sapiens) (UniProt Q14790). Kind of assay: Peptidase, CASP8 (Caspase 8) Eurofins-Panlabs enzyme assay. The conditions noted are these: Compound concentration 10.0 uM.
The target in assay [20] is T1, D(4) dopamine receptor (Homo sapiens) (UniProt P21917).
T1 sequence (whole entry): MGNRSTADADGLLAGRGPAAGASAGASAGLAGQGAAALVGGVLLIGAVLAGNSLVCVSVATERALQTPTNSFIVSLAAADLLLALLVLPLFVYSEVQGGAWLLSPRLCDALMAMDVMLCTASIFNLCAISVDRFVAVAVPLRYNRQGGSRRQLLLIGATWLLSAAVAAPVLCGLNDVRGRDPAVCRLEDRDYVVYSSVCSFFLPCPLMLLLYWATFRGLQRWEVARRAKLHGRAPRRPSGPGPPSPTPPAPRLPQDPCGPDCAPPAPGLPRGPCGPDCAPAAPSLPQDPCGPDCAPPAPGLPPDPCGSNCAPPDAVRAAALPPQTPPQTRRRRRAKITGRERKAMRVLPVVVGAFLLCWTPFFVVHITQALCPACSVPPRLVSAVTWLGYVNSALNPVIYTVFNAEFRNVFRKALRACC
The experiment in a line: Dopamine D4.4 Eurofins-Panlabs radioligand binding assay. Also on record: ligand concentration 1.2 nM. The following applies: Compound concentration 10.0 uM.

Assay [21] deals with Glutamate (NMDA/AMPA/Kainate) (Rattus norvegicus) (UniProt P35439+Q00959+Q00960+Q00961+Q62645+Q8VHN2+Q9R1M7+P22756+Q9ULK0+Q01812+P19491+P19492+P19493+P42260+P42264+P19490+Q63273+O43424). Kind of assay: Glutamate, Non-Selective Eurofins-Panlabs radioligand binding assay. Also on record: ligand concentration 3.75 nM. The following applies: Compound concentration 10.0 uM. Type of assay: protein-complex assay.

Assay [22] is filed under the species Rattus norvegicus. Kind of assay: Serotonin (5-Hydroxytryptamine) 5-HT2, Non-Selective Eurofins-Panlabs radioligand binding assay. Type of assay: protein assay. The conditions noted are these: Compound concentration 10.0 uM.
Assay [23] is filed under the species Homo sapiens. The experiment in a line: Cholecystokinin CCK2 (CCKB) Eurofins-Panlabs radioligand binding assay. Also on record: ligand concentration 0.072 nM, non-specific ligand with concentration 1 µM Sincalide, incubation time 3 h, incubation temperature 25 °C. The conditions noted are these: Compound concentration 10.0 uM.
In assay [24] the target is B1 bradykinin receptor (Homo sapiens) (UniProt P46663). Kind of assay: Bradykinin B1 Eurofins-Panlabs radioligand binding assay. The conditions noted are these: Compound concentration 10.0 uM.
B1 bradykinin receptor (Homo sapiens), sequence (P46663 whole entry): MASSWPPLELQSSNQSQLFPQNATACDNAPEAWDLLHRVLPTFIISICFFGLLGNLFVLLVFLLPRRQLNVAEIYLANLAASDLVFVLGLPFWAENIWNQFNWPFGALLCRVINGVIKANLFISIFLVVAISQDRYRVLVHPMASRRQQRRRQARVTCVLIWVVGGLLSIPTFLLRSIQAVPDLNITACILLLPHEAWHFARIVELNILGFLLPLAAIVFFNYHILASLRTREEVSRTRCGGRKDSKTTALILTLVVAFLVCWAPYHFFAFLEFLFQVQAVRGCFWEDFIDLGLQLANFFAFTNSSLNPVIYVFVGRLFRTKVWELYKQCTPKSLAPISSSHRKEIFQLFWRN
The target in assay [25] is Sodium-dependent noradrenaline transporter (Homo sapiens) (UniProt P23975). The following applies: Compound concentration 10.0 uM.
Assay [26] concerns the target Prostacyclin receptor (Homo sapiens) (UniProt P43119). Kind of assay: Prostanoid IP Eurofins-Panlabs radioligand binding assay. On the set-up: ligand concentration 5 nM. The following applies: Compound concentration 10.0 uM.
Assay [27] addresses Acetylcholinesterase (Homo sapiens) (UniProt P22303). The conditions noted are these: Compound concentration 10.0 uM.
For assay [28], the target named is T2, Muscarinic acetylcholine receptor M1 (Homo sapiens) (UniProt P11229).
T2 sequence (whole entry): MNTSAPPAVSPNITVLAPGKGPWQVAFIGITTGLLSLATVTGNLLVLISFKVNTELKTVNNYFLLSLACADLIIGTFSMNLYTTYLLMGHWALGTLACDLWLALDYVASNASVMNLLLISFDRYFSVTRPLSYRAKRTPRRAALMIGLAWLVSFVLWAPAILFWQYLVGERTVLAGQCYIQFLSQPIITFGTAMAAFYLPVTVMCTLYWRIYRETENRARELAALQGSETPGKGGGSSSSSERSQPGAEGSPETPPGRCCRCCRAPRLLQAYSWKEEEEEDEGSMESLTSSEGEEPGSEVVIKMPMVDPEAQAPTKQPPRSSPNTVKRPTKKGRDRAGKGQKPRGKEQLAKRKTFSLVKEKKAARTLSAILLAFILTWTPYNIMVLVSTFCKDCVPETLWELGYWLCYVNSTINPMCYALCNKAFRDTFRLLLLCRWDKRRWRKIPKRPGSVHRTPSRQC
Kind of assay: Agonism inflection point assay.

In assay [29] the target is Delta-type opioid receptor (Homo sapiens) (UniProt P41143). The experiment in a line: Opiate delta (OP1, DOP) Eurofins-Panlabs radioligand binding assay. The following applies: Compound concentration 10.0 uM.
Delta-type opioid receptor (Homo sapiens), sequence (P41143 whole entry): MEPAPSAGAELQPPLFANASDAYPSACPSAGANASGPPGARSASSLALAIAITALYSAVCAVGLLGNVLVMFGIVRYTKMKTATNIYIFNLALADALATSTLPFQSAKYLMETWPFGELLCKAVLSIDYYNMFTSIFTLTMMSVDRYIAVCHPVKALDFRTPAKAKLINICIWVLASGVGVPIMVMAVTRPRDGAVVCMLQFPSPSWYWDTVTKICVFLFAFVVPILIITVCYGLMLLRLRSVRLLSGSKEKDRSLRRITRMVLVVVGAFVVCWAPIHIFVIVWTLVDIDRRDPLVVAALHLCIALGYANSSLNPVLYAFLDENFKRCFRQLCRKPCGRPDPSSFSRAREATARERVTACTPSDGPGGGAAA
The target of assay [30] is C-X-C chemokine receptor type 2 (Homo sapiens) (UniProt P25025). Kind of assay: Inhibition of Chemokine CXCR2 (IL-8RB) at 10 µM in the Eurofins-Panlabs radioligand binding assay (Eurofins_assay_244500). The conditions noted are these: Compound concentration 10.0 uM.

Prostacyclin receptor (Homo sapiens), sequence (P43119 whole entry): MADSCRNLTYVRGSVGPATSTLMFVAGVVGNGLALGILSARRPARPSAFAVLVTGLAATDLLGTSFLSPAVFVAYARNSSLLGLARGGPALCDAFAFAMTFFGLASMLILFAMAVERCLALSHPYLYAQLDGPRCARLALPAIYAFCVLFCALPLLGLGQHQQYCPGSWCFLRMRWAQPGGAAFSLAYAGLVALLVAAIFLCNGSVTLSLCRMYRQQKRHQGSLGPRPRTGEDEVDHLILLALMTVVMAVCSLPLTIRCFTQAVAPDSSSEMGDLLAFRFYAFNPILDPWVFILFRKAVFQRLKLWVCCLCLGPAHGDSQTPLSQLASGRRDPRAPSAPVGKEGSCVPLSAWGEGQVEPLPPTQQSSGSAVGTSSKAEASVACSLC
Caspase-8 (Homo sapiens), sequence (Q14790 217-374 limits assumed): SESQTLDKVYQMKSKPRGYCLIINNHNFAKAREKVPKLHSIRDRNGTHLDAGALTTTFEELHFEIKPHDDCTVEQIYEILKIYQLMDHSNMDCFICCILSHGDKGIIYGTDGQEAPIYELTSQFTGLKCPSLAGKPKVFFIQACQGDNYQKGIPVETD
Caspase-8 (Homo sapiens), sequence (Q14790 385-479 limits assumed): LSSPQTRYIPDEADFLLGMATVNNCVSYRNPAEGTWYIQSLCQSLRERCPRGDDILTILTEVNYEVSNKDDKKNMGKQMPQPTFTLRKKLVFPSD
Type-1 angiotensin II receptor (Homo sapiens), sequence (P30556 whole entry): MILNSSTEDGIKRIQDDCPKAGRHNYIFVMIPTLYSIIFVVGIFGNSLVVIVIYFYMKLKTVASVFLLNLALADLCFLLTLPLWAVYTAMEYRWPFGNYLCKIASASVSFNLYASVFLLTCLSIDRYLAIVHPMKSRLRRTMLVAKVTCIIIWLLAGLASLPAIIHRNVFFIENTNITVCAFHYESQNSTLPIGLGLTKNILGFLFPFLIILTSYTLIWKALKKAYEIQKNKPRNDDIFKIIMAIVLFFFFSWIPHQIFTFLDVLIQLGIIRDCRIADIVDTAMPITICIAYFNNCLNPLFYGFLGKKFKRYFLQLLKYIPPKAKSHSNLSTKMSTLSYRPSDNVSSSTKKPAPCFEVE
5-hydroxytryptamine receptor 6 (Homo sapiens), sequence (P50406 whole entry): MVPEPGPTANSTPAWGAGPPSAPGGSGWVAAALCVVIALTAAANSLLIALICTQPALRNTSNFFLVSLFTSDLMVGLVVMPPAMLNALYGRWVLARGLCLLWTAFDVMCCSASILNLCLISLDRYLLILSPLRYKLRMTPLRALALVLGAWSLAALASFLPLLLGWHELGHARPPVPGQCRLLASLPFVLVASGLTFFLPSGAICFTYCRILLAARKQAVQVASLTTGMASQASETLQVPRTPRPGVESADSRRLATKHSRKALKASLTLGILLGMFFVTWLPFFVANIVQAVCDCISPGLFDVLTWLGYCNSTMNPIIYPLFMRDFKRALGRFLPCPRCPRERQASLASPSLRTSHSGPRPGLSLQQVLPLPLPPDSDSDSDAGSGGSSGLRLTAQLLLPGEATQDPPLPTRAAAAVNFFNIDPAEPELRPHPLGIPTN
TGF-beta receptor type-1 (Homo sapiens), sequence (P36897 whole entry): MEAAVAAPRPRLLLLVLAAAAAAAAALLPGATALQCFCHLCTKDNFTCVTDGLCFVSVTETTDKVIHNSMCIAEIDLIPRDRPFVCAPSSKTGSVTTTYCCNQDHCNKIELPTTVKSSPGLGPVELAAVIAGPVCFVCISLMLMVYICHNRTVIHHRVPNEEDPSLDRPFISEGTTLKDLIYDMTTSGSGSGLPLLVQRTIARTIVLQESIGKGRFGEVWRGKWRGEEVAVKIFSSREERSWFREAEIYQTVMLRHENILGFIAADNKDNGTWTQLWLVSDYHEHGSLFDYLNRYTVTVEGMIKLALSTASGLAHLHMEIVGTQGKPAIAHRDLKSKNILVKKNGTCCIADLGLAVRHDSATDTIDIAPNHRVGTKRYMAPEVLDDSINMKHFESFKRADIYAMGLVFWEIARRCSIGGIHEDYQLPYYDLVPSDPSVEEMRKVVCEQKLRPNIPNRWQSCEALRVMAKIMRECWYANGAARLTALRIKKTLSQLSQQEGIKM
Tyrosine-protein phosphatase non-receptor type 2, sequence (P17706 whole entry): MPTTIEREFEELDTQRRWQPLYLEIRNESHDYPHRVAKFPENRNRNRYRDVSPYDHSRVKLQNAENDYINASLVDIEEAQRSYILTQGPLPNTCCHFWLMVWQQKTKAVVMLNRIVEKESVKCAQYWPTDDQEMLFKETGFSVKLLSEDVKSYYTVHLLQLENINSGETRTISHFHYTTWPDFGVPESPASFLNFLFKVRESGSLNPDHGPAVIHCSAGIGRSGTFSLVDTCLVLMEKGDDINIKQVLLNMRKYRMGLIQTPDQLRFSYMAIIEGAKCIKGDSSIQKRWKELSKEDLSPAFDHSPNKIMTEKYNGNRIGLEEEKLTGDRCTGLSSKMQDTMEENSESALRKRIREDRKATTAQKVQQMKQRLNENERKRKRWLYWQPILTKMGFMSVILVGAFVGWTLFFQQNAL

The term residual activity denotes the activity still measured, relative to the control. By inhibition is commonly meant the drop in the measured response relative to a control, in per cent. Take `N#CC1(c2ccccn2)CCN(Cc2cc(C(=O)N3CCCC3)c(=O)n3ccccc23)CC1`: the residual activity in assay [1] is 72%. In [2], the inhibition is 1.13%.
Usually IC50 stands for the point on the concentration scale where inhibition reaches its midpoint. A low value points to higher potency. For the compound `N#CC1(c2ccccn2)CCN(Cc2cc(C(=O)O)c(=O)n3ccccc23)CC1` [MSD-M1PAM], the inhibition in [3] was -10%; in [4], -3%; in [5], -5%; in assay [6], 1%; in [7] it was -8%; in assay [8] it was -2.87%. In addition, the inhibition was 34% in [9]; 9% in assay [10]; 24% in assay [11]; -2% in [12]; -2% in [13]; 11% in assay [15]. Moreover, the inhibition in [16] is 14%; in [17], 15%; in assay [18] it was -2%; in assay [19], 9%; in [20] it was 3%; in [21], 8%. Besides, the inhibition in [22] was 0%; in [23] it was -3%; in [24], -6%; in [25], 8%; in [26], 22%; in assay [27], 1%. The inhibition in assay [29] is 19%; in assay [30] it was 0%. In [14], this compound had a concentration for half-maximal inhibition (IC50) of 10 µM. The Agonism inflection point in [28] is 7.38 µM.
